Reference: paper PMC10290961 (European Journal of Medicinal Chemistry, 2023)

What was measured:
[1] = tested on: VACV
[2] = Transmission electron microscopy; format: physicochemical; details: for micelle formation (TEM): 50.0 μM, pH 7.4 phosphate buffer
[3] = Stability in GSH environment; format: physicochemical; details: 20 mM GSH, pH 7.4 phosphate buffer, 37 °C
[4] = for decomposition in SGF: 37 °C, within 120 min
[5] = tested on: AdV5; format: cell-based, adenovirus (AdV) 5; details: A549 cells

Row | SMILES | micelle formation (TEM) [2] | stability in GSH environment relative to 1c [3] | other results
1 | CCCCCCCCCCCCCCSSCCOP(=O)(O)CO[C@H](CO)Cn1ccc(N)nc1=O.N [Compound 1c, 2-(tetradecyldisulfanyl)ethyl hydrogen ((((S)-1-(4-amino-2-oxopyrimidin-1(2H)-yl)-3-hydroxypropan-2-yl)oxy)methyl)phosphonate] | could form micelles | – | fold TI relative to BCV [1]: 2.8 fold; remaining after incubation with GSH ([3]; after 360 min): approximately 13%; remaining in SGF ([4]; SGF pH 2.0, 37 °C, after 120 min): approximately 77%
2 | CCCCCCCCCCCCCCCCSSCCOP(=O)(O)CO[C@H](CO)Cn1ccc(N)nc1=O.N [Compound 1d, 2-(hexadecyldisulfanyl)ethyl hydrogen ((((S)-1-(4-amino-2-oxopyrimidin-1(2H)-yl)-3-hydroxylpropan-2-yl)oxy)methyl)phosphonate] | could form micelles | significant enhancement in stability | –
3 | CCCCCCCCCCCCCCCCCCSSCCOP(=O)(O)CO[C@H](CO)Cn1ccc(N)nc1=O.N [Compound 1e, 2-(octadecyldisulfanyl)ethyl hydrogen ((((S)-1-(4-amino-2-oxopyrimidin-1(2H)-yl)-3-hydroxypropan-2-yl)oxy)methyl)phosphonate] | could form micelles | significant enhancement in stability | stability of micelles in GSH environment (TEM) ([2]; incubated for 4 h in GSH environment): could keep stable
4 | CCCCCCCCCCCCCCSSCCCOP(=O)(O)CO[C@H](CO)Cn1ccc(N)nc1=O.N [Compound 1h, 3-(tetradecyldisulfanyl)propyl hydrogen ((((S)-1-(4-amino-2-oxopyrimidin-1(2H)-yl)-3-hydroxypropan-2-yl)oxy)methyl)phosphonate] | – | significant enhancement in stability | –
5 | CCCCCCCCCCCCCCSSCCCCOP(=O)(O)CO[C@H](CO)Cn1ccc(N)nc1=O.N [Compound 1m, 4-(tetradecyldisulfanyl)butyl hydrogen ((((S)-1-(4-amino-2-oxopyrimidin-1(2H)-yl)-3-hydroxypropan-2-yl)oxy)methyl)phosphonate] | – | significant enhancement in stability | –
6 | CCCCCCCCCCCCCCCCSSCCCCOP(=O)(O)CO[C@H](CO)Cn1ccc(N)nc1=O.N [Compound 1n, 4-(hexadecyldisulfanyl)butyl hydrogen ((((S)-1-(4-amino-2-oxopyrimidin-1(2H)-yl)-3-hydroxypropan-2-yl)oxy)methyl)phosphonate] | could form micelles | – | decomposition in SGF [4]: not decomposed
7 | CCCCCCCCSSCCCCCCOP(=O)(O)CO[C@H](CO)Cn1ccc(N)nc1=O.N [Compound 1o, 6-(octyldisulfanyl)hexyl hydrogen ((((S)-1-(4-amino-2-oxopyrimidin-1(2H)-yl)-3-hydroxypropan-2-yl)oxy)methyl)phosphonate] | – | – | TI (therapeutic index, CC50/IC50) [1]: >4
8 | CCCCCCCCCCCCSSCCCCCCOP(=O)(O)CO[C@H](CO)Cn1ccc(N)nc1=O.N [Compound 1q, 6-(dodecyldisulfanyl)hexyl hydrogen ((((S)-1-(4-amino-2-oxopyrimidin-1(2H)-yl)-3-hydroxypropan-2-yl)oxy)methyl)phosphonate] | – | – | fold increase in TI value compared to BCV (anti-AdV5) [5]: 8.9 fold; decomposition in SGF [4]: not decomposed
9 | CCCCCCCCCCCCCCSSCCCCCCOP(=O)(O)CO[C@H](CO)Cn1ccc(N)nc1=O.N [Compound 1r, 6-(tetradecyldisulfanyl)hexyl hydrogen ((((S)-1-(4-amino-2-oxopyrimidin-1(2H)-yl)-3-hydroxypropan-2-yl)oxy)methyl)phosphonate] | could form micelles | significant enhancement in stability | –
